Where “and” joins values, the source holds several entries; their conditions need not be identical. Equal values may be shown once. Read-outs that look alike come from different tables or passages of the source.
What was measured:
[1] = tested on: patients with moderate-to-severe chronic plaque psoriasis; assay: Population PK/PD (exposure-efficacy) modeling with NONMEM and clinical trial simulation of long-term MTX treatment; set-up: species or system human
From the text: The PK/PD model was built using a non-linear mixed-effects population modeling (NONMEM) approach with NONMEM software (double precision, Version VI) and a NMTRAN pre-processor. Models were compiled using the Intel Visual Fortran compiler (Version 9) on a dual processor workstation (DELL Precision 530) under the Windows 2000 (Service pack 4) operating system.
All 110 MTX-treated subjects in Study M04-716 were included in the population PK/PD analysis.
All the observed PASI scores over the 16-week period in MTX-treated subjects in Study M04-716 were used.
The amount in the central compartment was scaled by the apparent volume of distribution (V/F).
All subjects were assumed to have the typical PK parameter values (i.e., intersubject and intrasubject variabilities were set to zero).
Several PD models were examined. The first model is an indirect response model with an inhibitory effect (Imax and IC50) of Ce (concentration at an effect compartment) on Kin. Kin is the ‘synthesis rate’ into a compartment where PASI scores reside in. The 2nd model examined was similar to the final PD model (see below), except that the rate into the 3rd compartment is Kin·(Emax/(1+EC50/Cp)), rather than Kin·Cp.
The final PD model is a two-step indirect model (as shown below). […] In this model, Compartments 3 and 4 were added as delay/modulator compartments for triggering the observed PASI response.
Kin and Kout are the rate constants into and out of Compartment 3. […] Kout was set equal to Kin. K40 is the rate constant out of Compartment 4, and it controls the persistence of PASI response. PASI is the predicted PASI score, which equals to the baseline PASI score divided by a factor great than one, and the parameter ‘GAM’ influences the steepness of the functional relationship.
For the PD modeling, exponential error models were used to describe the inter-individual errors on the PD parameters Kin and K40.
The evaluation criteria used to select an appropriate PK/PD model are described below: • 1. […] The OFV is equal to −2 times the maximum logarithm of the likelihood of the data (−2LL). Non-hierarchical models are compared based on the AKAIKE criterion. • 2. The observed and predicted PASI scores from a preferred model were more randomly distributed across the line of unity (a straight line with zero intercept and a slope of one) than those from alternative model(s). • 3.
The first-order conditional estimation (FOCE) with INTERACTION method was employed within NONMEM, and a diagonal structure of the n matrix was assumed.
The final population PK/PD model was validated using a bootstrap method (random resampling with replacement). […]

[2] = tested on: patients with moderate-to-severe chronic plaque psoriasis; assay: Study M04-716 (CHAMPION), 16-week Phase III active- and placebo-controlled trial, PASI 75 response; assay type: in vivo, human; details: for PASI 75 response rate at Week 16: observed, Week 16 relative to Baseline
Experimental: The primary efficacy endpoint was the proportion of subjects achieving at least a 75% reduction in the Psoriasis Area and Severity Index (PASI) score (i.e., ≧PASI 75 response) at Week 16 relative to Baseline (Week 0).
Study M04-716 was a 16-week multicenter, double-blind, and double-dummy study.
PASI scores were assessed prior to the first dose of study drug (Baseline) and at Weeks 1, 2, 4, 8, 12 and 16.
Dose escalation/titration was carried out according to the efficacy and safety criteria defined in the protocol.
In addition, the subjects were candidates for systemic therapy or phototherapy.
The ADA treatment group received 40 mg every-other-week (eow) injections from Week 1, following an 80-mg initial dose. […] Dose escalation was carried out according to the efficacy and safety criteria defined in the study protocol. All study patients received injections as well as oral tablets, regardless of treatment group assignment (double-dummy design) (FIG. 5). Patient outcome was measured using a PASI 75 response: a 75% reduction (improvement) in PASI score at Week 16 compared with the baseline score.

[3] = cited from earlier work
[4] = two-step indirect response model, Run 18
[5] = fixed in the PK model, from the literature

Compound | simulated PASI 75 response rate at Week 52 greater than that at Week 16 ([1]; difference Week 52 vs Week 16) | K40 = THETA (2), estimate, final PD model [1, 4] [day⁻¹] | Kin = THETA (1), estimate, final PD model [1, 4] [day⁻¹] | calculated Tmax ([1]; with CL/F = 3 L/day/kg, V/F = 0.6 L/kg, Ka = 10 day^−1) | PASI75 Response Rate (90% CI) Actual (NRI) ([2]; Week 1) | PASI75 Response Rate (90% CI) Actual (NRI) ([2]; Week 2) | PASI75 Response Rate (90% CI) Actual (NRI) ([2]; Week 4) | PASI75 Response Rate (90% CI) Actual (NRI) ([2]; Week 8) | PASI75 Response Rate (90% CI) Actual (NRI) ([2]; Week 16) | PASI 75 response rate at Week 16 [2] [%] | V/F (apparent volume of distribution), values in the literature ([3]; RA) [L/kg in RA.^2] | CL/F (apparent clearance), value used in NONMEM [3, 5] [mL/min/kg] | Ka (first-order absorption rate constant), value used in NONMEM [3, 5] [day⁻¹] | V/F (apparent volume of distribution), value used in NONMEM [3, 5] [L/kg] | half-life ([3]; in vivo) [h] | Tmax, values in the literature ([3]; leukemic pediatric patients) | Vss (volume of distribution at steady state), values in the literature ([3]; patient population unspecified) | CL/F (apparent clearance), values in the literature ([3]; patients with psoriasis) | Tmax, values in the literature ([3]; patients with psoriasis) | CL/F (apparent clearance), values in the literature ([3]; patients with rheumatoid arthritis (RA))
CN(Cc1cnc2nc(N)nc(N)c2n1)c1ccc(C(=O)N[C@@H](CCC(=O)O)C(=O)O)cc1 [MTX, methotrexate] | approximately 12% | 0.0203 | 3.83 | Tmax would be 3.3 hrs, | 0.0 (0.1, 3.2) | 0.0 (0.1, 3.2) | 2.7 (0.8, 7.2) | 9.1 (5.2, 15.2) | 35.5 (28.0, 43.7) | 35.5 | 0.55 | 2.1 | 10 | 0.6 | 2 to 3 | Tmax = 0.67-4 hrs in leukemic pediatric patients.^3 | 0.4-0.8 L/kg (Vss).^3 | 12.4 L/h and 10.8 L/h and 11.5 L/h | Tmax = 2 hrs in patients with psoriasis. | 2.1 mL/min/kg in patients with rheumatoid
adalimumab | – | – | – | – | – | – | – | – | – | 79.6 | – | – | – | – | – | – | – | – | – | –
